Results reported in patent publication US8147891B2, “Use of an acaricidal powder” (SOLVAY (Societe Anonyme), priority 2002, dated 2012).
Like-named read-outs stand apart in the source and are kept apart here.

How the values were obtained:
Acarus siro = settings: after 48 hours; 10 g powder, 50 mites, mean of 3 samples
Description: (§1) 10 g of sodium bicarbonate powder having a particle size such that 100% of the particles have a diameter of less than 160μ, and at least 95% have a diameter of less than 100μ, were placed at the bottom of a Petri dish. 50 “Acarus siro” wheat mites were then placed on the powder.

Tyrophagus putrescentiae = settings: after 24 hours; 10 g powder, 50 mites
Protocol: as §1
The procedure was carried out as for Example 1, except that “Tyrophagus putrescentiae” cheese mites were used.

Rhizopertha dominica = settings: 10 g powder, 50 insects
Description: In this example, a powder comprising 96% of sodium bicarbonate and 4% of amorphous precipitated fumed silica (Aerosil® 200 produced by Degussa) was used. The powder has a particle size such that 100% of the particles have a diameter of less than 160μ and at least 95% have a diameter of less than 100μ.
(§2) 10 g of powder were placed at the bottom of a Petri dish. 50 “lesser grain borer” insects (Rhizopertha dominica) were then placed on the powder, along with sufficient food to ensure survival for 15 days.
In Examples 4 and 5, the procedure was carried out as in Example 3, except that, in Example 4, a powder consisting essentially of sodium bicarbonate was used and, in Example 5, a powder consisting essentially of silica (silica gel) was used.

Sitophilus granarius = test system: Sitophilus granarius
Description: as §2
The effect of various silicas and of a mixture of diatomaceous earth supplemented with 10% of silica gel was also compared.

O=C([O-])O.[Na+] [Sodium bicarbonate, sodium bicarbonate]
death of the acarids (Acarus siro): 95%
death of the acarids (Tyrophagus putrescentiae): 100%
% mortality (Rhizopertha dominica; 48 h): 2%
% mortality (Rhizopertha dominica; 72 h): 8%
% mortality (Rhizopertha dominica; 4 days): 15%
% mortality (Rhizopertha dominica; 7 days): 21%
% mortality (Rhizopertha dominica; 10 days): 43%
% mortality (Rhizopertha dominica; 15 days): 91%
% mortality (Sitophilus granarius; 24 h): 0%
% mortality (Sitophilus granarius; 48 h): 0%
% mortality (Sitophilus granarius; 72 h): 1%
% mortality (Sitophilus granarius; 4 days): 5%
% mortality (Sitophilus granarius; 7 days): 9%
% mortality (Sitophilus granarius; 10 days): 55%
% mortality (Sitophilus granarius; 15 days): 100%
